Experimental data taken from BindingDB's records for doi:10.3109/14756366.2011.645241 (Cairo University, 2013).

Key:
Cannabinoid receptor 1 = Cannabinoid receptor 1 (Homo sapiens, UniProt P21554); assay: Cannabinoid Receptor Binding Assay
Method: (§1) Membranes from HEK-293 cells transfected with the human recombinant CB1 receptor(Bmax=2.5pmol/mg protein) and human recombinant CB2 receptor (B max=4.7 pmol/mgprotein) were incubated with [3H]-CP-55,940 (0.14 nM / Kd = 0.18 nM and 0.084nM / Kd =0.31 nM respectively for CB1 and CB2 receptor) as the high affinity ligand and displaced with 10 μM WIN 55212-2 as the heterologous competitor for non specific binding (Ki values 9.2 nM and 2.1 nM respectively for CB1 and CB2 receptor). All compounds were tested following the procedure described by the manufacturer (Perkin Elmer, Italy). Displacement curves were generated by incubating drugs with [3H]-CP-55,940 for 90 minutes at 30 C. Ki values were calculated by applying the Cheng-Prusoff equation to the IC50 values (obtained by GraghPad) for the displacement of the bound radioligand by increasing concentrations of the testcompound. Data are means±SEM of at least n=3 experiments.

Cannabinoid receptor 2 = Cannabinoid receptor 2 (Homo sapiens, UniProt P34972); assay: Cannabinoid Receptor Binding Assay
Chain of Cannabinoid receptor 2 (P34972 whole entry): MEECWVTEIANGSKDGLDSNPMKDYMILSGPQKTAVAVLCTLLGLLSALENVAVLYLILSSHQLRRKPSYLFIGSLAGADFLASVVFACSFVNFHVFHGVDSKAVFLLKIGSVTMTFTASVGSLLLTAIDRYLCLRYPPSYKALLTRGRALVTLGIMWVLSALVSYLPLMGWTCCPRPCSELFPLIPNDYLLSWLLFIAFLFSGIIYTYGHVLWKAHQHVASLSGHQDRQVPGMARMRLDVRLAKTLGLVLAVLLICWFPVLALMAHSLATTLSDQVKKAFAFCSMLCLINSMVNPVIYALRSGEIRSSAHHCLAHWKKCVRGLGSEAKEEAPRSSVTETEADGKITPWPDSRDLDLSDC
Method: as §1

Chain of Cannabinoid receptor 1 (P21554 whole entry): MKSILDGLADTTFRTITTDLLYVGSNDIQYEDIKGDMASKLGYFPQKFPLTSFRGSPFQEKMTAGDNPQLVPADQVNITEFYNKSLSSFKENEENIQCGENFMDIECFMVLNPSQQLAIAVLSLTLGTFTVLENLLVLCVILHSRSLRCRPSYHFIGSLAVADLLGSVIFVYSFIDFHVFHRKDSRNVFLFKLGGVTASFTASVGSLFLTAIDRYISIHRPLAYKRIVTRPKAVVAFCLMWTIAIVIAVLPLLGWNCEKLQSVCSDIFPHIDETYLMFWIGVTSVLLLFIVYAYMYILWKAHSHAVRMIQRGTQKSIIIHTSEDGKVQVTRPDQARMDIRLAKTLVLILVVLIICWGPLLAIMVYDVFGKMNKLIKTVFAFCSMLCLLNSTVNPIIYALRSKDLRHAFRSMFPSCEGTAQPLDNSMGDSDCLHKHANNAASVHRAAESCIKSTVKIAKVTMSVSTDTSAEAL

CC(=O)Nc1ccc(OC(=O)CCC(=O)Nc2cccc3ccccc23)cc1 [4-Acetamidophenyl 4-(naphthalen-1-ylamino)-4-oxobutanoate (5c)]
> 10 µM: IC50 (Cannabinoid receptor 1) | Ki (Cannabinoid receptor 1) | IC50 (Cannabinoid receptor 2) | Ki (Cannabinoid receptor 2)

CC(=O)Nc1ccc(OC(=O)CCC(=O)/C=C/c2ccccc2)cc1 [(E)-4-Acetamidophenyl 4-oxo-6-phenylhex-5-enoate (3l)]
> 10 µM: IC50 (Cannabinoid receptor 1) | Ki (Cannabinoid receptor 1) | IC50 (Cannabinoid receptor 2) | Ki (Cannabinoid receptor 2)

CCC(C)(O)NC(=O)CCC(=O)/C=C/c1ccc(OC)c(OC)c1 (stereo not given) [(E)-6-(3,4-Dimethoxyphenyl)-N-(2-hydroxybutan-2-yl)-4-oxohex-5-enamide (3i)]
> 10 µM: IC50 (Cannabinoid receptor 1) | Ki (Cannabinoid receptor 1) | IC50 (Cannabinoid receptor 2) | Ki (Cannabinoid receptor 2)

CCC(C)(O)NC(=O)CCC(=O)/C=C/c1ccc(OCc2ccccc2)cc1 (stereo not given) [(E)-6-(4-(Benzyloxy)phenyl)-N-(2-hydroxybutan-2-yl)-4-oxohex-5-enamide (3j)]
> 10 µM: IC50 (Cannabinoid receptor 1) | Ki (Cannabinoid receptor 1) | IC50 (Cannabinoid receptor 2) | Ki (Cannabinoid receptor 2)

CCC(C)(O)NC(=O)CCC(=O)/C=C/c1ccc(-c2ccccc2)cc1 (stereo not given) [(E)-6-(Biphenyl-4-yl)-N-(2-hydroxybutan-2-yl)-4-oxohex-5-enamide (3m)]
> 10 µM: IC50 (Cannabinoid receptor 1) | Ki (Cannabinoid receptor 1) | IC50 (Cannabinoid receptor 2) | Ki (Cannabinoid receptor 2)

CCC(C)(O)NC(=O)CCC(=O)/C=C/c1ccc(N(C)C)cc1 (stereo not given) [(E)-6-[4-(Dimethylamino)phenyl]-N-(2-hydroxybutan-2yl)-4-oxohex-5-enamide (3g)]
> 10 µM: IC50 (Cannabinoid receptor 1) | Ki (Cannabinoid receptor 1) | IC50 (Cannabinoid receptor 2) | Ki (Cannabinoid receptor 2)

CCOC(=O)CNC(=O)CCC(=O)/C=C/c1ccc(OC)c(OC)c1 [(E)-Ethyl 2-(6-(3,4-dimethoxyphenyl)-4-oxohex-5-enamido)acetate (3h)]
> 10 µM: IC50 (Cannabinoid receptor 1) | Ki (Cannabinoid receptor 1) | IC50 (Cannabinoid receptor 2) | Ki (Cannabinoid receptor 2)

CCOC(=O)CNC(=O)CCC(=O)/C=C/c1ccc(OCc2ccccc2)cc1 [(E)-Ethyl 2-(6-(4-(benzyloxy)phenyl)-4-oxohex-5-enamido)acetate (3k)]
> 10 µM: IC50 (Cannabinoid receptor 1) | Ki (Cannabinoid receptor 1) | IC50 (Cannabinoid receptor 2) | Ki (Cannabinoid receptor 2)

O=C(/C=C/c1ccccc1)CCC(=O)NC(CO)(CO)CO [(E)-N-(1,3-Dihydroxy-2-(hydroxymethyl)propan-2-yl)-4-oxo-6-phenylhex-5-enamide (3b)]
> 10 µM: IC50 (Cannabinoid receptor 1) | Ki (Cannabinoid receptor 1) | IC50 (Cannabinoid receptor 2) | Ki (Cannabinoid receptor 2)

Cc1ccc(/C=C/C(=O)CCC(=O)NC(CO)(CO)CO)cc1 [(E)-N-(1,3-Dihydroxy-2-(hydroxymethylpropan-2-yl)-4-oxo-6-p-tolylhex-5-enamide (3e)]
> 10 µM: IC50 (Cannabinoid receptor 1) | Ki (Cannabinoid receptor 1) | IC50 (Cannabinoid receptor 2) | Ki (Cannabinoid receptor 2)

CCC(C)(O)NC(=O)CCC(=O)/C=C/c1ccc(C)cc1 (stereo not given) [(E)-N-(2-Hydroxybutan-2-yl)-4-oxo-6-p-tolylhex-5-enamide (3d)]
> 10 µM: IC50 (Cannabinoid receptor 1) | Ki (Cannabinoid receptor 1) | IC50 (Cannabinoid receptor 2) | Ki (Cannabinoid receptor 2)

CCC(C)(O)NC(=O)CCC(=O)/C=C/c1ccccc1 (stereo not given) [(E)-N-(2-Hydroxybutan-2-yl)-4-oxo-6-phenylhex-5-enamide (3a)]
> 10 µM: IC50 (Cannabinoid receptor 1) | Ki (Cannabinoid receptor 1) | IC50 (Cannabinoid receptor 2) | Ki (Cannabinoid receptor 2)

Cc1ccc(/C=C/C(=O)CCC(=O)Nc2ccc(O)cc2)cc1 [(E)-N-(4-Hydroxyphenyl)-4-oxo-6-p-tolylhex-5-enamide (3f)]
> 10 µM: IC50 (Cannabinoid receptor 1) | Ki (Cannabinoid receptor 1) | IC50 (Cannabinoid receptor 2) | Ki (Cannabinoid receptor 2)

CCOC(=O)CNC(=O)CCC(=O)Nc1cccc2ccccc12 [Ethyl 2-(4-(naphthalen-1-ylamino)-4-oxobutanamido)acetate (5b)]
> 10 µM: IC50 (Cannabinoid receptor 1) | Ki (Cannabinoid receptor 1) | IC50 (Cannabinoid receptor 2) | Ki (Cannabinoid receptor 2)

CCC(C)(O)NC(=O)CCC(=O)Nc1cccc2ccccc12 (stereo not given) [N-(2-Hydroxybutan-2-yl)-2-(4-naphthalen-1-ylamino)-4-oxobutanamide (5a)]
> 10 µM: IC50 (Cannabinoid receptor 1) | Ki (Cannabinoid receptor 1) | IC50 (Cannabinoid receptor 2) | Ki (Cannabinoid receptor 2)
